The test system of series [1] is B16F10-Cas9 cells co-cultured with Pmel-1 T cells. Briefly: Genome-scale CRISPR-Cas9 screen, selection with Pmel-1 T cells. The class given is cell-based, mouse. Particulars: Table 3; B16F10-Cas9 cells pre-treated with IFNγ, co-cultured with Pmel-1 T cells 1:1 for three days; negative = depleted, positive = enriched.
The subject of series [2] is B16F10-Cas9 cells pulsed with SIINFEKL peptide, co-cultured with OT-I T cells. Briefly: Genome-scale CRISPR-Cas9 screen, selection with OT-I T cells. In kind it is cell-based, mouse. The following applies: Table 3; B16F10-Cas9 cells pulsed with SIINFEKL, co-cultured with OT-I T cells 1:1 for one day; negative = depleted, positive = enriched.

For the sequence “TGGAACCTCCTGATCCGCTG (chemistry not fully specified)”, in series [1], the “Pmel+ (sgRNA Log(2) fold change, Pmel-1 selection versus control T cells)” value is given as 0.12. For the same sequence, the “OT1 (sgRNA Log(2) fold change, OT-I selection versus control T cells)” value in series [2] is -4.60.
Turning to “AGTTTGGAGCCCAGTAGGCA (chemistry not fully specified)”, the “Pmel+ (sgRNA Log(2) fold change, Pmel-1 selection versus control T cells)” value in series [1] is -2.19. Further, in series [2], the “OT1 (sgRNA Log(2) fold change, OT-I selection versus control T cells)” value is reported as -2.77.
Take “TGTGATGTTAGATAAACAGA (chemistry not fully specified)”: the “Pmel+ (sgRNA Log(2) fold change, Pmel-1 selection versus control T cells)” value in series [1] was 7.91. For the same sequence, the “OT1 (sgRNA Log(2) fold change, OT-I selection versus control T cells)” value in series [2] was 1.50.
As for “TGATGAGCAGATTCTAACTT (chemistry not fully specified)”, in series [1], the “Pmel+ (sgRNA Log(2) fold change, Pmel-1 selection versus control T cells)” value came to 5.03. The “OT1 (sgRNA Log(2) fold change, OT-I selection versus control T cells)” value in series [2] was determined as 3.81.
In the case of “CTCTTCCAACACGTCCAAGT (chemistry not fully specified)”, the “Pmel+ (sgRNA Log(2) fold change, Pmel-1 selection versus control T cells)” value in series [1] is on record as 3.56. The “OT1 (sgRNA Log(2) fold change, OT-I selection versus control T cells)” value in series [2] is reported as 0.64.
The corresponding values for “ATAGCACCAAAGCCTAACAA (chemistry not fully specified)” are 0.00 and -2.27.
The corresponding values for “CATAGCCAGAACAGTTGACC (chemistry not fully specified)” are -0.66 and -2.44.
As to “CCCGGGAATAGCGTACAGCT (chemistry not fully specified)”, in series [1], the “Pmel+ (sgRNA Log(2) fold change, Pmel-1 selection versus control T cells)” value was 0.70. The “OT1 (sgRNA Log(2) fold change, OT-I selection versus control T cells)” value in series [2] is -2.71.
The corresponding values for “GCTGGGGAACTCAATTATAG (chemistry not fully specified)” are 2.03 and -0.78.
The corresponding values for “TGGACATGAGCCATATGTTG (chemistry not fully specified)” are 3.35 and -0.14.
The corresponding values for “TGGTCTAGTTACCATGCAAG (chemistry not fully specified)” are -0.83 and -3.50.
For the sequence “GTGAGCCTGAGGAACCTGCT (chemistry not fully specified)”, in series [1], the “Pmel+ (sgRNA Log(2) fold change, Pmel-1 selection versus control T cells)” value came out at 3.08. In addition, the “OT1 (sgRNA Log(2) fold change, OT-I selection versus control T cells)” value in series [2] amounted to 1.01.
The corresponding values for “GCCCTTTACTTTCAGTACGG (chemistry not fully specified)” are -0.93 and -2.52.
The corresponding values for “GAATTGCAACGCCCACACCG (chemistry not fully specified)” are 0.39 and -3.93.
The corresponding values for “CAGGACTTCTGGTCTATCCG (chemistry not fully specified)” are -1.47 and -3.14.
With “TTCAGGGTGAAATACGAGGA (chemistry not fully specified)”, the “Pmel+ (sgRNA Log(2) fold change, Pmel-1 selection versus control T cells)” value in series [1] came to 5.32. Moreover, the “OT1 (sgRNA Log(2) fold change, OT-I selection versus control T cells)” value in series [2] is 3.43.
The corresponding values for “TTAGTTCTGGCAAAGCGCCG (chemistry not fully specified)” are -2.54 and -2.23.
The corresponding values for “AGAGATCTGCGCCATTTAAG (chemistry not fully specified)” are -0.91 and -3.28.
For “GCTGTGGGGACTGCTAAAAG (chemistry not fully specified)”, the “Pmel+ (sgRNA Log(2) fold change, Pmel-1 selection versus control T cells)” value in series [1] is on record as 2.22. Moreover, the “OT1 (sgRNA Log(2) fold change, OT-I selection versus control T cells)” value in series [2] was -1.12.
For the sequence “GAAAAATCTGTACACCACCG (chemistry not fully specified)”, the “Pmel+ (sgRNA Log(2) fold change, Pmel-1 selection versus control T cells)” value in series [1] was -0.30. For the same sequence, the “OT1 (sgRNA Log(2) fold change, OT-I selection versus control T cells)” value in series [2] is -2.64.
The corresponding values for “AAGGGCCACTTACAATTAGG (chemistry not fully specified)” are 2.10 and -0.44.
The corresponding values for “GCTCGATGGATAGCATTCAC (chemistry not fully specified)” are 0.17 and -3.98.
The corresponding values for “TCTTAAAGCTACGGTGTAAG (chemistry not fully specified)” are -0.87 and -2.41.
For the sequence “AATGCTGACGACTTTCAATG (chemistry not fully specified)”, the “Pmel+ (sgRNA Log(2) fold change, Pmel-1 selection versus control T cells)” value in series [1] turned out to be 0.00. In addition, the “OT1 (sgRNA Log(2) fold change, OT-I selection versus control T cells)” value in series [2] is on record as -2.31.
The corresponding values for “CTGCACCAATGTTGGTCACG (chemistry not fully specified)” are 2.82 and 0.32.
For “CTTGGTCAAATACACTACAG (chemistry not fully specified)”, in series [1], the “Pmel+ (sgRNA Log(2) fold change, Pmel-1 selection versus control T cells)” value was 2.66. In addition, the “OT1 (sgRNA Log(2) fold change, OT-I selection versus control T cells)” value in series [2] turned out to be 1.61.
The corresponding values for “TTGTGAGGCAAACTGAACGA (chemistry not fully specified)” are -0.86 and -2.11.
On to “ACACAACGCTAAGACAGTCG (chemistry not fully specified)”, for which the “Pmel+ (sgRNA Log(2) fold change, Pmel-1 selection versus control T cells)” value in series [1] was -0.22. Further, the “OT1 (sgRNA Log(2) fold change, OT-I selection versus control T cells)” value in series [2] is -3.60.
The corresponding values for “CCCGGACTGGATCAACACCG (chemistry not fully specified)” are -0.09 and -3.76.
The corresponding values for “GCTCAAGTACTCGCCCGACC (chemistry not fully specified)” are -0.69 and -2.85.
The corresponding values for “TTGTGCCTAAACAAAAAACA (chemistry not fully specified)” are 0.85 and -2.52.
In the case of “ACATTGATACGCACACTCAC (chemistry not fully specified)”, the “Pmel+ (sgRNA Log(2) fold change, Pmel-1 selection versus control T cells)” value in series [1] came out at 1.41. In series [2], the “OT1 (sgRNA Log(2) fold change, OT-I selection versus control T cells)” value is -2.37.
Turning to “CAGCAGCAAGTTCACAGGTG (chemistry not fully specified)”, the “Pmel+ (sgRNA Log(2) fold change, Pmel-1 selection versus control T cells)” value in series [1] is listed as -1.37. Besides, the “OT1 (sgRNA Log(2) fold change, OT-I selection versus control T cells)” value in series [2] is reported as -3.04.
The corresponding values for “GGACGAGAGCAACATAAACA (chemistry not fully specified)” are 2.15 and -0.03.
As for “GAGTTGCAGCCAGATACGCG (chemistry not fully specified)”, the “Pmel+ (sgRNA Log(2) fold change, Pmel-1 selection versus control T cells)” value in series [1] was -1.28. Further, in series [2], the “OT1 (sgRNA Log(2) fold change, OT-I selection versus control T cells)” value is given as -3.25.
Turning to “TGGACCTCCGAAAAACATCT (chemistry not fully specified)”, the “Pmel+ (sgRNA Log(2) fold change, Pmel-1 selection versus control T cells)” value in series [1] was found to be 5.37. Besides, the “OT1 (sgRNA Log(2) fold change, OT-I selection versus control T cells)” value in series [2] was found to be 3.78.
The corresponding values for “CCATTGTATAACTGTCTGCG (chemistry not fully specified)” are -1.14 and -3.02.
The corresponding values for “GCCAACATCTGCTTACTCGC (chemistry not fully specified)” are -1.97 and -2.55.
With “TCTGTTGAAAGAGCGCCAAA (chemistry not fully specified)”, the “Pmel+ (sgRNA Log(2) fold change, Pmel-1 selection versus control T cells)” value in series [1] is -3.36. Also, the “OT1 (sgRNA Log(2) fold change, OT-I selection versus control T cells)” value in series [2] is given as -0.71.
The corresponding values for “CCTGGGTACCAACTGACGAA (chemistry not fully specified)” are -2.96 and -2.91.
The corresponding values for “TGATAATAGATAAACGACCA (chemistry not fully specified)” are 0.05 and -3.36.
The corresponding values for “GCTGCCCCGCAGGATCATCA (chemistry not fully specified)” are -2.00 and -2.94.
Take “TCTTCAGGAGAGAATACCAT (chemistry not fully specified)”: the “Pmel+ (sgRNA Log(2) fold change, Pmel-1 selection versus control T cells)” value in series [1] is 3.86. Also, the “OT1 (sgRNA Log(2) fold change, OT-I selection versus control T cells)” value in series [2] is 3.69.
The corresponding values for “GTCTTGTGCAAAAAGCCCGA (chemistry not fully specified)” are -0.15 and -2.54.
The corresponding values for “CTGTTACCTTCATAGATAAG (chemistry not fully specified)” are 0.00 and -2.50.

For the origin of these results see patent US11820822B2, “Methods for sensitizing cancer cells to T cell-mediated killing by modulating molecular pathways” (DANA-FARBER CANCER INSTITUTE, INC., priority 2017, dated 2023).
